Assay results reported in publication PMC7305236, “The atypical chemokine receptor ACKR3/CXCR7 is a broad-spectrum scavenger for opioid peptides” (Nature Communications, 2020).
Where two headings read alike, the source gives them in different places.

How the values were obtained:
Parameters in all cases: dose or concentration left out as unconfirmed
CCR9 = biological target: T1, CCR9 (Homo sapiens, UniProt P51686); assay: Figure S2a opioid peptide screen on chemokine receptors; assay type: cell-based
T1 construct: expressed in transfected cells
T1 sequence (P51686 1-369): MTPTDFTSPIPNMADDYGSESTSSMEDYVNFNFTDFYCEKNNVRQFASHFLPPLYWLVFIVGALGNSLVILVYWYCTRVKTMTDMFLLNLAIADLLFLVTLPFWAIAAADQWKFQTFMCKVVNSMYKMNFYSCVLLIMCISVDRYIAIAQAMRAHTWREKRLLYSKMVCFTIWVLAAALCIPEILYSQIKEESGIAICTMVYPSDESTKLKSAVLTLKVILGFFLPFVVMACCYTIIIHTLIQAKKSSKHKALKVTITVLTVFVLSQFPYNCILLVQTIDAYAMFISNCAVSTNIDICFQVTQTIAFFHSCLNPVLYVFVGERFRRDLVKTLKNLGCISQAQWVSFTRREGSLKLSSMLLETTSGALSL

CXCR2 = biological target: T2, CXCR2 (Homo sapiens, UniProt P25025); assay: as above; assay type: cell-based
T2 construct: expressed in transfected cells
T2 sequence (P25025 1-360): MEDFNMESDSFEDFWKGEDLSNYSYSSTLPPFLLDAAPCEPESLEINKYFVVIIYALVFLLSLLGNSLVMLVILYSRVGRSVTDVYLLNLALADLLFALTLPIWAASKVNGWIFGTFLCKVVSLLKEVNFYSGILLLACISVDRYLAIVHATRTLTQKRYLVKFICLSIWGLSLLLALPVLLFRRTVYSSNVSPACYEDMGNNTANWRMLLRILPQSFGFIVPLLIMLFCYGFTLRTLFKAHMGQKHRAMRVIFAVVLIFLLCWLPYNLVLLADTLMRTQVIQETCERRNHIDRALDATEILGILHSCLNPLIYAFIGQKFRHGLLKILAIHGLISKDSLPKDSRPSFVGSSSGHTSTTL

CXCR5 = biological target: T3, CXCR5 (Homo sapiens, UniProt P32302); assay: as above; assay type: cell-based
T3 construct: expressed in transfected cells
T3 sequence (P32302 1-372): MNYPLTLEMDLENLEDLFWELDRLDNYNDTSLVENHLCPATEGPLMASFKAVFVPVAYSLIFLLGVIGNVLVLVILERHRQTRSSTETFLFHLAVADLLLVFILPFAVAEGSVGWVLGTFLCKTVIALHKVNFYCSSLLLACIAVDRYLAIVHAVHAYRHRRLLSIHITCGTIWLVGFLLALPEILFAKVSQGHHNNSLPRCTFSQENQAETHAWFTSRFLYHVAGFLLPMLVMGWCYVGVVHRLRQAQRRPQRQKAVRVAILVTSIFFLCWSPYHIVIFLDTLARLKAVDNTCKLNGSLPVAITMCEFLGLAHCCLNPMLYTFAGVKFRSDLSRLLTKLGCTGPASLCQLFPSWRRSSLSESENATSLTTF

ACKR4 = biological target: T4, ACKR4 (Homo sapiens, UniProt Q9NPB9); assay: as above; settings: read-out: ACKR4 activity, ctrl+ = 100, Figure S2a
T4 sequence (Q9NPB9 1-350): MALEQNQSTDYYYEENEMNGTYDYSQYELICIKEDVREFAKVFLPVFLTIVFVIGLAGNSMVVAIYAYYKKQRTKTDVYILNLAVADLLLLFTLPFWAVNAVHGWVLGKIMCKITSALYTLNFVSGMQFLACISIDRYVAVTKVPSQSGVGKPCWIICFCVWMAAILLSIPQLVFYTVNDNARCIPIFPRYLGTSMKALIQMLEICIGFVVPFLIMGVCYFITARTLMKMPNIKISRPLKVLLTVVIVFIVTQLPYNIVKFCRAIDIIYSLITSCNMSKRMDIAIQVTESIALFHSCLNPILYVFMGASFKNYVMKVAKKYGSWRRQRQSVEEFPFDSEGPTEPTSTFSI

CXCR6 = biological target: T5, CXCR6 (Homo sapiens, UniProt O00574); assay: as above; assay type: cell-based
T5 construct: expressed in transfected cells

CXCR3A = biological target: T6, CXCR3A (Homo sapiens, UniProt P49682); assay: as above; assay type: cell-based
T6 construct: expressed in transfected cells; host or cells: U87 cells
T6 sequence (P49682 1-368): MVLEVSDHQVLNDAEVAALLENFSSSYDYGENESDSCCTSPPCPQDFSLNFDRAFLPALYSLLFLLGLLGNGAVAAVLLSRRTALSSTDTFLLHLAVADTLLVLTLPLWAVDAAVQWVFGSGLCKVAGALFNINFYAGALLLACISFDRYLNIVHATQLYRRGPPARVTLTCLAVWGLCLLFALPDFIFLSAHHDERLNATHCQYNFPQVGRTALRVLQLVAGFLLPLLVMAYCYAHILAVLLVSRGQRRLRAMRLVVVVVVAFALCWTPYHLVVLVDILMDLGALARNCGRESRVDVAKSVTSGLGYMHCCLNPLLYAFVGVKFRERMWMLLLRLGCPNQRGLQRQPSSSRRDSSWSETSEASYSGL

ACKR3 = ACKR3 (Homo sapiens, UniProt P25106); assay: cell-based; settings: read-out: ACKR3 activity, ctrl+ = 100, Figure S2a
CXCR4 = biological target: T7, CXCR4 (Homo sapiens, UniProt P61073); assay: cell-based; settings: read-out: CXCR4 activity, ctrl+ = 100, Figure S2a
T7 construct: expressed in transfected cells; host or cells: U87, transient cotransfection of pNBe vectors

CCR5 = biological target: T8, CCR5 (Homo sapiens, UniProt P51681); assay: Figure S2a opioid peptide screen on chemokine receptors; assay type: cell-based
T8 construct: expressed in transfected cells
T8 sequence (P51681 whole entry): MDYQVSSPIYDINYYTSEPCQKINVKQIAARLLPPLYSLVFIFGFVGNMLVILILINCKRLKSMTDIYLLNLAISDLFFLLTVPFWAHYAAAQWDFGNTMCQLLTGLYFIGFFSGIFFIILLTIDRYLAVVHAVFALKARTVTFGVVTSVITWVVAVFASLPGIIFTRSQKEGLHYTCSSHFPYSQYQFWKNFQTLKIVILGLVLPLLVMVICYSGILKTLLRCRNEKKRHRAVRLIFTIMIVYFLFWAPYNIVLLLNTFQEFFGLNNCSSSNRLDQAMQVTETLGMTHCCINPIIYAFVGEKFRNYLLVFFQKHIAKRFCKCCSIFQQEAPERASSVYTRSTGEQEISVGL

T5 sequence (O00574 whole entry): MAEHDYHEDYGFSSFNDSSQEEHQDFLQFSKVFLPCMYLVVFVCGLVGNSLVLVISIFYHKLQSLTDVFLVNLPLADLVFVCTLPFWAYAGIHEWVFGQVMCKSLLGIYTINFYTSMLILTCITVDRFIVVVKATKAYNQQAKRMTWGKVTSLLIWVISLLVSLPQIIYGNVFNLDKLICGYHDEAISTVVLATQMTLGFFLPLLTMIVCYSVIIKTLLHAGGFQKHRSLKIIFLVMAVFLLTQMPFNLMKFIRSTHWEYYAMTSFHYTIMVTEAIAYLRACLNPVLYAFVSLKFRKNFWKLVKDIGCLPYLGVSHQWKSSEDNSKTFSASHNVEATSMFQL
Sequence of ACKR3 (P25106 whole entry): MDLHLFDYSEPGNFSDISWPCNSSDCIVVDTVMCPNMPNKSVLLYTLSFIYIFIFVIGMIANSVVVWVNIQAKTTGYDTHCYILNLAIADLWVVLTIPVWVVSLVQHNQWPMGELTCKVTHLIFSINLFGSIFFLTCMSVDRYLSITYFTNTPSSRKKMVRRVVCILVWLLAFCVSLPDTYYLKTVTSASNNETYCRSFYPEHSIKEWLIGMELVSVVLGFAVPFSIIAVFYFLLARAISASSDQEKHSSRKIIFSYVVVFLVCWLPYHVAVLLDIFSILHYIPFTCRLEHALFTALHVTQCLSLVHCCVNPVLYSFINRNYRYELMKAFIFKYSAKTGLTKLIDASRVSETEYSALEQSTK
T7 sequence (P61073 whole entry): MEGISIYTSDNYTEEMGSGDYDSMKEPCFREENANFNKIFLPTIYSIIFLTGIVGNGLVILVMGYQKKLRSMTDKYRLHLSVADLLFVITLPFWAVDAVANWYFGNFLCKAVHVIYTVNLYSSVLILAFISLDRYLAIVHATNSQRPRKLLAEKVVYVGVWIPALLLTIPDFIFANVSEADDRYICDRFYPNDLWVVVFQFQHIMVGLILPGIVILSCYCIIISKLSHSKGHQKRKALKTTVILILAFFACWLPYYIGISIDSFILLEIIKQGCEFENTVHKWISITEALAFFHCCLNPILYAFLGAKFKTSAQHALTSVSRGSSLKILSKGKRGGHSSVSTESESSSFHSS

CSCC[C@H](NC(=O)[C@H](Cc1ccccc1)NC(=O)CNC(=O)CNC(=O)[C@@H](N)Cc1ccc(O)cc1)C(=O)N[C@@H](CCCNC(=N)N)C(=O)N[C@@H](CCCNC(=N)N)C(=O)N[C@H](C(=O)NCC(=O)N[C@@H](CCCNC(=N)N)C(=O)N1CCC[C@H]1C(=O)N[C@@H](CCC(=O)O)C(=O)N[C@@H](Cc1c[nH]c2ccccc12)C(=O)N[C@@H](Cc1c[nH]c2ccccc12)C(=O)N[C@@H](CCSC)C(=O)N[C@@H](CC(=O)O)C(=O)N[C@@H](Cc1ccc(O)cc1)C(=O)N[C@@H](CCC(N)=O)C(=O)N[C@@H](CCCCN)C(=O)N[C@@H](CCCNC(=N)N)C(=O)N[C@@H](Cc1ccc(O)cc1)C(=O)NCC(=O)O)C(C)C [BAM22] gave an activation (CCR9; replicate 1, read-out: CCR9 activity, ctrl+ = 100) of -0.202%, an activation (CCR9; replicate 2, read-out: CCR9 activity, ctrl+ = 100) of -2.13% and an activation (CCR9; replicate 3, read-out: CCR9 activity, ctrl+ = 100) of 5.56%. It also gave an activation (CXCR2; replicate 1, read-out: CXCR2 activity, ctrl+ = 100) of -3.38%, an activation (CXCR2; replicate 2, read-out: CXCR2 activity, ctrl+ = 100) of -4.91% and an activation (CXCR2; replicate 3, read-out: CXCR2 activity, ctrl+ = 100) of -1.55%. It also gave an activation (CXCR5; replicate 1, read-out: CXCR5 activity, ctrl+ = 100) of -1.51%, an activation (CXCR5; replicate 2, read-out: CXCR5 activity, ctrl+ = 100) of -4.48% and an activation (CXCR5; replicate 3, read-out: CXCR5 activity, ctrl+ = 100) of -1.8%. It also gave an activation (ACKR4; replicate 1) of -4.56%, an activation (ACKR4; replicate 2) of -1.96% and an activation (ACKR4; replicate 3) of 5.51%. The activation (CXCR6; replicate 1, read-out: CXCR6 activity, ctrl+ = 100) was -0.237%, the activation (CXCR6; replicate 2, read-out: CXCR6 activity, ctrl+ = 100) was -0.939% and the activation (CXCR6; replicate 3, read-out: CXCR6 activity, ctrl+ = 100) was -1.21%. For the same compound, the activation (CXCR3A; replicate 1, read-out: CXCR3A activity, ctrl+ = 100) was 3.44%, the activation (CXCR3A; replicate 2, read-out: CXCR3A activity, ctrl+ = 100) was 2.11% and the activation (CXCR3A; replicate 3, read-out: CXCR3A activity, ctrl+ = 100) was 7.49%. The activation (ACKR3; replicate 1) was 104%, the activation (ACKR3; replicate 2) was 61.3% and the activation (ACKR3; replicate 3) was 104%. The activation (CXCR4; replicate 1) was 22.9%, the activation (CXCR4; replicate 2) was 27.7% and the activation (CXCR4; replicate 3) was -6.34%. For the same compound, the activation (CCR5; replicate 1, read-out: CCR5 activity, ctrl+ = 100) was 0.229%, the activation (CCR5; replicate 2, read-out: CCR5 activity, ctrl+ = 100) was -1.32% and the activation (CCR5; replicate 3, read-out: CCR5 activity, ctrl+ = 100) was -1.42%.
